Assay: Apparent permeability of compound at 1 mM incubated for 4 hrs by PAMPA based LC-MS/MS analysis
Type: ADME

Row | Papp at 4 h, 1000 µM [×10⁻⁶ cm/s] | Structure (SMILES)
1 | 18 | FC(F)(F)c1ccc(Cn2c(NC3CCN(Cc4ccccc4)CC3)nc3ccccc32)cc1
2 | 0.18 | Oc1ncccc1CN1CCC(Nc2nc3ccccc3n2Cc2ccc(C(F)(F)F)cc2)CC1
3 | 23 | Oc1ccccc1CN1CCC(Nc2nc3ccccc3n2Cc2ccc(C(F)(F)F)cc2)CC1

Reference: ChEMBL document CHEMBL6121001, “Benzimidazole analogues active against adult Schistosoma mansoni: SAR analyses, In vivo efficacy in mice, and preliminary mechanistic studies as potential inhibitors of hemozoin formation” (Eur J Med Chem, 2025)
